This assay concerns L1210 leukemia ip in BDF1 mice, survival T/C. The assay can be described thus: NCI In Vivo Anticancer Drug Screen. Data for tumor model L1210 Leukemia (intraperitoneal) in B6D2F1 (BDF1) mice. Particulars: endpoint: mean survival time, higher = longer survival. The essentials: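 Transplanted-tumor mice were given test agent; controls received vehicle only. Survival readings from the two groups were divided (treated over control).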

Where [1] appears, read: dose: 100.0 mg/kg/injection, schedule: Q01DX009 (ip), vehicle: saline.
The mark [2] stands for this setting: dose: 100.0 mg/kg/injection, schedule: Q04DX003 (ip), vehicle: saline.
Where [3] appears, read: dose: 200.0 mg/kg/injection, schedule: Q01DX009 (ip), vehicle: saline.
[4] abbreviates: dose: 200.0 mg/kg/injection, schedule: Q04DX003 (ip), vehicle: saline.
[5] abbreviates: dose: 400.0 mg/kg/injection, schedule: Q01DX009 (ip), vehicle: saline.
Setting [6] is: dose: 400.0 mg/kg/injection, schedule: Q04DX003 (ip), vehicle: saline.
[7] abbreviates: dose: 25.0 mg/kg/injection, schedule: Q04DX003 (ip), vehicle: saline with Tween-80.
Setting [8] is: dose: 50.0 mg/kg/injection, schedule: Q04DX003 (ip), vehicle: saline with Tween-80.
[9] abbreviates: dose: 100.0 mg/kg/injection, schedule: Q04DX003 (ip), vehicle: saline with Tween-80.
Setting [10] is: dose: 100.0 mg/kg/injection, schedule: Q01DX009 (ip), vehicle: saline with Tween-80.
Where [11] appears, read: dose: 50.0 mg/kg/injection, schedule: Q01DX009 (ip), vehicle: saline.
The mark [12] stands for this setting: dose: 100.0 mg/kg/injection, schedule: Q01DX001 (ip), vehicle: Klucel (hydroxypropylcellulose) (HPC).
Setting [13] is: dose: 200.0 mg/kg/injection, schedule: Q01DX001 (ip), vehicle: Klucel (hydroxypropylcellulose) (HPC).

The structures appear in SMILES notation. Several values for one entry are separate records, joined by “and”; a condition that tells them apart may be missing. Equal values may be shown once. Toxic doses and inconclusive results are not listed.

For the compound `CCOC(=O)c1cnc(SC)nc1NCCO`, the T/C is 97 % of control (dose: 100.0 mg/kg/injection, schedule: Q04DX003 (ip), vehicle: Klucel (hydroxypropylcellulose) (HPC)); 95 % of control (dose: 200.0 mg/kg/injection, schedule: Q04DX003 (ip), vehicle: Klucel (hydroxypropylcellulose) (HPC)); 97 % of control (dose: 400.0 mg/kg/injection, schedule: Q04DX003 (ip), vehicle: Klucel (hydroxypropylcellulose) (HPC)).

As for `CCOC(=O)C(C)C(=O)C(=O)N=C(N)N` (configuration not stated), the T/C by setting is: under setting [1], 102 % of control; under setting [2], 101 % of control and 103 % of control; under setting [3], 100 % of control; under setting [4], 97 % of control; under setting [5], 100 % of control; under setting [6], 103 % of control and 104 % of control.

On to `COc1cc(/C=C\[N+](=O)[O-])ccc1O`, for which the T/C under setting [7] was 93 % of control, the T/C under setting [8] is 96 % of control and the T/C under setting [9] was 95 % of control.

As for `CC(O)CCc1ccccc1` (configuration not stated), the T/C is, setting by setting: under setting [10], 100 % of control; (dose: 200.0 mg/kg/injection, schedule: Q01DX009 (ip), vehicle: saline with Tween-80) 89 % of control; (dose: 400.0 mg/kg/injection, schedule: Q01DX009 (ip), vehicle: saline with Tween-80) 88 % of control.

In the case of `COc1ccc(C(=O)C(Br)C(Br)C(=O)O)cc1` (configuration not stated), the T/C by setting is: (dose: 12.5 mg/kg/injection, schedule: Q01DX009 (ip), vehicle: saline with Tween-80) 93 % of control; (dose: 25.0 mg/kg/injection, schedule: Q01DX009 (ip), vehicle: saline with Tween-80) 102 % of control; (dose: 25.0 mg/kg/injection, schedule: Q01DX009 (ip), vehicle: saline) 102 % of control; under setting [7], 98 % of control and 103 % of control; (dose: 50.0 mg/kg/injection, schedule: Q01DX009 (ip), vehicle: saline with Tween-80) 104 % of control; under setting [11], 100 % of control and 94 % of control. Further, the T/C under setting [8] is 100 % of control and 101 % of control and 103 % of control; the T/C (dose: 66.0 mg/kg/injection, schedule: Q04DX003 (ip), vehicle: saline) was 102 % of control; the T/C under setting [10] is 86 % of control; the T/C under setting [1] was 97 % of control and 89 % of control; the T/C under setting [9] is 100 % of control and 104 % of control and 107 % of control; the T/C under setting [2] was 106 % of control and 122 % of control and 92 % of control. The T/C is, setting by setting: (dose: 150.0 mg/kg/injection, schedule: Q04DX003 (ip), vehicle: saline) 111 % of control; under setting [4], 108 % of control.

Turning to `CC1(NO)CCCCC1`, the T/C was 100 % of control under setting [12] and 94 % of control under setting [13].

With `CCOc1cc(/C=N\Nc2nncn2N)ccc1N(CCCl)CCCl`, the T/C is, setting by setting: (dose: 0.5 mg/kg/injection, schedule: Q01DX015 (ip), vehicle: carboxymethylcellulose (CMC)) 109 % of control; (dose: 1.0 mg/kg/injection, schedule: Q01DX015 (ip), vehicle: carboxymethylcellulose (CMC)) 111 % of control; (dose: 2.0 mg/kg/injection, schedule: Q01DX015 (ip), vehicle: carboxymethylcellulose (CMC)) 116 % of control; (dose: 4.0 mg/kg/injection, schedule: Q01DX015 (ip), vehicle: carboxymethylcellulose (CMC)) 101 % of control and 109 % of control; (dose: 5.0 mg/kg/injection, schedule: Q01DX001 (ip), vehicle: carboxymethylcellulose (CMC)) 98 % of control and 117 % of control; (dose: 7.0 mg/kg/injection, schedule: Q01DX015 (ip), vehicle: carboxymethylcellulose (CMC)) 107 % of control and 90 % of control. Also, the T/C was 101 % of control (dose: 10.0 mg/kg/injection, schedule: Q01DX001 (ip), vehicle: carboxymethylcellulose (CMC)); 98 % of control and 117 % of control (dose: 12.0 mg/kg/injection, schedule: Q01DX015 (ip), vehicle: carboxymethylcellulose (CMC)); 95 % of control and 106 % of control (dose: 20.0 mg/kg/injection, schedule: Q01DX001 (ip), vehicle: carboxymethylcellulose (CMC)); 120 % of control (dose: 20.0 mg/kg/injection, schedule: Q01DX015 (ip), vehicle: carboxymethylcellulose (CMC)); 106 % of control (dose: 40.0 mg/kg/injection, schedule: Q01DX001 (ip), vehicle: carboxymethylcellulose (CMC)).

As for `CC1(C)CCOC(C2OCCC(C)(C)O2)O1` (configuration not stated), the T/C was 113 % of control (dose: 50.0 mg/kg/injection, schedule: Q01DX009 (ip), vehicle: acetone); 93 % of control (dose: 100.0 mg/kg/injection, schedule: Q01DX009 (ip), vehicle: acetone); 98 % of control (dose: 200.0 mg/kg/injection, schedule: Q01DX009 (ip), vehicle: acetone).

With `N=C1C(=O)C(=N)c2ccccc2-c2ccccc21`, the T/C was 94 % of control (dose: 100.0 mg/kg/injection, schedule: Q01DX009 (ip), vehicle: Klucel (hydroxypropylcellulose) (HPC)); 97 % of control (dose: 200.0 mg/kg/injection, schedule: Q01DX009 (ip), vehicle: Klucel (hydroxypropylcellulose) (HPC)); 95 % of control (dose: 400.0 mg/kg/injection, schedule: Q01DX009 (ip), vehicle: Klucel (hydroxypropylcellulose) (HPC)).

As to `O=S(=O)(CCS(=O)(=O)c1ccccc1)c1ccccc1`, the T/C under setting [11] was 94 % of control; the T/C (dose: 100.0 mg/kg/injection, schedule: Q04DX002 (ip), vehicle: Klucel (hydroxypropylcellulose) (HPC)) is 92 % of control; the T/C (dose: 150.0 mg/kg/injection, schedule: Q01DX009 (ip), vehicle: saline) was 97 % of control; the T/C (dose: 200.0 mg/kg/injection, schedule: Q04DX002 (ip), vehicle: Klucel (hydroxypropylcellulose) (HPC)) was 92 % of control; the T/C (dose: 400.0 mg/kg/injection, schedule: Q04DX002 (ip), vehicle: Klucel (hydroxypropylcellulose) (HPC)) is 88 % of control.

For `O=C(NCC(O)CNC(=O)Nc1ccc(C2=NCCN2)cc1)Nc1ccc(C2=NCCN2)cc1`, the T/C (dose: 3.75 mg/kg/injection, schedule: Q01DX Z (ip), vehicle: carboxymethylcellulose (CMC)) was 97 % of control; the T/C (dose: 15.0 mg/kg/injection, schedule: Q01DX Z (ip), vehicle: carboxymethylcellulose (CMC)) was 244 % of control; the T/C (dose: 21.0 mg/kg/injection, schedule: Q01DX Z (ip), vehicle: carboxymethylcellulose (CMC)) was 216 % of control; the T/C (dose: 30.0 mg/kg/injection, schedule: Q01DX Z (ip), vehicle: carboxymethylcellulose (CMC)) was 164 % of control; the T/C (dose: 62.0 mg/kg/injection, schedule: Q01DX Z (oral), vehicle: carboxymethylcellulose (CMC)) was 110 % of control; the T/C (dose: 84.0 mg/kg/injection, schedule: Q01DX Z (ip), vehicle: carboxymethylcellulose (CMC)) is 104 % of control. For the same compound, the T/C is 108 % of control (dose: 125.0 mg/kg/injection, schedule: Q01DX Z (oral), vehicle: carboxymethylcellulose (CMC)); 104 % of control (dose: 250.0 mg/kg/injection, schedule: Q01DX Z (oral), vehicle: carboxymethylcellulose (CMC)); 97 % of control (dose: 500.0 mg/kg/injection, schedule: Q01DX Z (oral), vehicle: carboxymethylcellulose (CMC)).

Take `O=C(Nc1ccc(F)c([N+](=O)[O-])c1)c1ccc2c(c1)C(=O)OC2=O`: the T/C is 99 % of control (dose: 100.0 mg/kg/injection, schedule: Q01DX001 (ip), vehicle: saline); 102 % of control and 92 % of control under setting [1]; 104 % of control and 109 % of control (dose: 100.0 mg/kg/injection, schedule: Q04DX002 (ip), vehicle: saline); 106 % of control under setting [2]; 99 % of control (dose: 200.0 mg/kg/injection, schedule: Q01DX001 (ip), vehicle: saline); 100 % of control and 92 % of control under setting [3]. Besides, the T/C is 96 % of control and 104 % of control (dose: 200.0 mg/kg/injection, schedule: Q04DX002 (ip), vehicle: saline); 111 % of control under setting [4]; 104 % of control (dose: 400.0 mg/kg/injection, schedule: Q01DX001 (ip), vehicle: saline); 105 % of control and 92 % of control under setting [5]; 96 % of control and 104 % of control (dose: 400.0 mg/kg/injection, schedule: Q04DX002 (ip), vehicle: saline); 103 % of control under setting [6].

With `CC(C)CCCCCc1ccc(OCCOc2ccc(C(=O)Nc3ccc(S(=O)(=O)F)cc3[N+](=O)[O-])cc2)cc1`, the T/C runs as follows: under setting [12], 100 % of control; under setting [13], 94 % of control; (dose: 400.0 mg/kg/injection, schedule: Q01DX001 (ip), vehicle: Klucel (hydroxypropylcellulose) (HPC)) 94 % of control.

The values are drawn from PubChem BioAssay AID248 (DTP/NCI, 2004).
